Data from US20230066011A1, “PYRROLOPYRIMIDINE DERIVATIVE, AND PHARMACEUTICAL COMPOSITION FOR PREVENTING OR TREATING PROTEIN KINASE-RELATED DISEASE COMPRISING SAME AS ACTIVE INGREDIENT” (VORONOI CO., LTD., priority 2019, published 2023).

Key:
LRRK2 (G2019S) = LRRK2 (G2019S) (Homo sapiens, UniProt Q5S007, G2019S); assay: LRRK2 G2019S enzyme inhibition, ADP-Glo kinase assay; assay type: biochemical; set-up: purchased SignalChem L10-12GG; details: ATP 25 μM
Method in brief: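 Purified human LRRK2 G2019S (16 ng) with 25 μM ATP and 0.2 μg substrate, 2 h at 25° C. in Tris-HCl pH 7.4, MgCl2, BSA, DTT buffer; compounds at 12 final concentrations, 50 μM down to 0.000001024 μM. ADP-Glo luminescence versus solvent control gave IC50.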

IL-6 = assay: Inhibition of LPS-induced IL-6 secretion of THP-1 monocytes (ELISA); assay type: cell-based, human; details: compound 0.5 μM, LPS 500 ng/mL, 24 hours; for inhibition at 0.5 µM: Homo sapiens, THP-1, read-out: THP1/IL6 (% inhib)
Description: (§1) To evaluate an inhibitory effect on cytokine secretion of monocytes, THP-1 cells (ATCC, #TIB-202) as a human-derived monocyte line were cultured in an RPMI-1640 (Hyclone, SH30027.01) medium supplemented with 10% fetal bovine serum (Hyclone, SH30084.03), 1% penicillin streptomycin (Welgene, LS202-02), and 50 μM 2-mercaptoethanol (Gibco, #21985023). In the test, the cells were seeded in a 48-well plate (SPL, #30048) at a density of 1.5 to 2×10^5 cells/250 μL per well, and cultured at 37° C. for 16 hours in a 5% CO2 incubator. Thereafter, the compound was diluted with DMSO so that the final concentration of the compound was 0.5 μM. Then, the cells were treated with the diluted compound before an hour of treatment with lipopolysaccharides (LPS) (Sigma, #L6529). After the treatment with the compound, the cells were treated with LPS so that the final concentration was 500 ng/mL. Then, a cell culture broth was collected after 24 hours of culture, and levels of cytokine IL-6 (R&D Systems, #D6050) and TNF-α (R&D Systems, #DTA00D) comprised in the culture broth were measured using respective ELISA kits. After an experiment was performed according to the manufacturer's guidelines, cell analysis was performed by measuring the optical density at 450 nm using a microplate reader.

human GST-CLK1 = target: T1, human GST-CLK1 (Homo sapiens, UniProt P49759); assay: GST-CLK1 enzyme inhibition, ADP-Glo kinase assay; assay type: biochemical; details: ATP 10 μM, GST-CLK1 129-end
T1 construct: purified human GST-CLK1 (129-end, SignalChem) enzyme; purchased SignalChem
Method in brief: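 Human GST-CLK1 (129-end, 3 ng) reacted with substrate and 10 μM ATP for 1 h at 25° C in 40 mM Tris-HCl pH 7.4, 20 mM MgCl2, 0.5 mg/mL BSA, 50 μM DTT. ADP-Glo luminescence was normalised to solvent control; IC50 (nM) from 3 data sets.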

TNF-α = assay: Inhibition of LPS-induced TNF-α secretion of THP-1 monocytes (ELISA); assay type: cell-based, human; details: compound 0.5 μM, LPS 500 ng/mL, 24 hours; for inhibition at 0.5 µM: Homo sapiens, THP-1, read-out: THP-1/TNF-α (% inhib)
Description: as §1

LRRK2 = LRRK2 (Homo sapiens, UniProt Q5S007); assay: LRRK2 enzyme inhibition, ADP-Glo kinase assay; assay type: biochemical; set-up: purchased Invitrogen PR8604B; details: ATP 10 μM
Method in brief: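 Purified human LRRK2 (25 ng) with 10 μM ATP and 0.2 μg substrate in 40 mM Tris-HCl pH 7.4, 20 mM MgCl2, 0.5 mg/mL BSA, 50 μM DTT, 2 h at 25° C. ADP-Glo luminescence; 12-point compound series from 50 μM final; IC50 relative to solvent control.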

human GST-DYRK1A = target: T2, human GST-DYRK1A (Homo sapiens, UniProt Q13627); assay: GST-DYRK1A enzyme inhibition, ADP-Glo kinase assay; assay type: biochemical; details: ATP 10 μM, GST-DYRK1A full length, read-out: DYRK1 IC50
T2 construct: purified human GST-DYRK1A (full length, Thermo Scientifics) enzyme; purchased Thermo Scientifics
Method in brief: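 Full-length human GST-DYRK1A (10 ng) with 10 μM ATP and specific substrate in 40 mM Tris-HCl pH 7.4, 20 mM MgCl2, 0.5 mg/mL BSA, 50 μM DTT, 1 h at 25 °C. ADP formation read by ADP-Glo luminescence relative to solvent control; IC50 from three data sets.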

human DYRK1A and tau = assay: Inhibition of tau phosphorylation, ClariCELL Kinase Cell-Based Assay, HEK 293 cells expressing human DYRK1A and tau; details: for inhibition at 1 µM: HEK293, read-out: % inhibition at 1 uM, tau phosphorylation, compound 1 uM; for inhibition at 0.25 µM / inhibition at 0.5 µM: HEK293, tau phosphorylation
Description: An inhibitory effect on tau phosphorylation was determined using the ClariCELL™ Kinase Cell-Based Assay service (commercially available from CamaBio USA, Inc.). Human embryonic kidney (HEK 293) cells temporarily expressing human DYRK1A and tau were exposed to the compound, and then lysed to release cell proteins. In this case, the released tau was captured on a plate, and a degree of phosphorylation was quantified by ELISA using a tau phosphorylation-specific antibody.

MDA-MB-468 cell line = assay: Inhibition of proliferation of MDA-MB-468 cancer cells (Cell Titer-Glo); assay type: cell-based; details: 72 hours
Method in brief: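 Cells seeded at 2,000/well and exposed 72 h to 11 concentrations of compound (3-fold dilutions, final 10.000000 down to 0.000169 μM) in DMEM or RPMI. Viability read by Cell Titer-Glo luminescence after 10 min at room temperature; GI50 calculated from luminescence.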

Chain of LRRK2 (G2019S) (Q5S007 970-2527 G2019S limits assumed): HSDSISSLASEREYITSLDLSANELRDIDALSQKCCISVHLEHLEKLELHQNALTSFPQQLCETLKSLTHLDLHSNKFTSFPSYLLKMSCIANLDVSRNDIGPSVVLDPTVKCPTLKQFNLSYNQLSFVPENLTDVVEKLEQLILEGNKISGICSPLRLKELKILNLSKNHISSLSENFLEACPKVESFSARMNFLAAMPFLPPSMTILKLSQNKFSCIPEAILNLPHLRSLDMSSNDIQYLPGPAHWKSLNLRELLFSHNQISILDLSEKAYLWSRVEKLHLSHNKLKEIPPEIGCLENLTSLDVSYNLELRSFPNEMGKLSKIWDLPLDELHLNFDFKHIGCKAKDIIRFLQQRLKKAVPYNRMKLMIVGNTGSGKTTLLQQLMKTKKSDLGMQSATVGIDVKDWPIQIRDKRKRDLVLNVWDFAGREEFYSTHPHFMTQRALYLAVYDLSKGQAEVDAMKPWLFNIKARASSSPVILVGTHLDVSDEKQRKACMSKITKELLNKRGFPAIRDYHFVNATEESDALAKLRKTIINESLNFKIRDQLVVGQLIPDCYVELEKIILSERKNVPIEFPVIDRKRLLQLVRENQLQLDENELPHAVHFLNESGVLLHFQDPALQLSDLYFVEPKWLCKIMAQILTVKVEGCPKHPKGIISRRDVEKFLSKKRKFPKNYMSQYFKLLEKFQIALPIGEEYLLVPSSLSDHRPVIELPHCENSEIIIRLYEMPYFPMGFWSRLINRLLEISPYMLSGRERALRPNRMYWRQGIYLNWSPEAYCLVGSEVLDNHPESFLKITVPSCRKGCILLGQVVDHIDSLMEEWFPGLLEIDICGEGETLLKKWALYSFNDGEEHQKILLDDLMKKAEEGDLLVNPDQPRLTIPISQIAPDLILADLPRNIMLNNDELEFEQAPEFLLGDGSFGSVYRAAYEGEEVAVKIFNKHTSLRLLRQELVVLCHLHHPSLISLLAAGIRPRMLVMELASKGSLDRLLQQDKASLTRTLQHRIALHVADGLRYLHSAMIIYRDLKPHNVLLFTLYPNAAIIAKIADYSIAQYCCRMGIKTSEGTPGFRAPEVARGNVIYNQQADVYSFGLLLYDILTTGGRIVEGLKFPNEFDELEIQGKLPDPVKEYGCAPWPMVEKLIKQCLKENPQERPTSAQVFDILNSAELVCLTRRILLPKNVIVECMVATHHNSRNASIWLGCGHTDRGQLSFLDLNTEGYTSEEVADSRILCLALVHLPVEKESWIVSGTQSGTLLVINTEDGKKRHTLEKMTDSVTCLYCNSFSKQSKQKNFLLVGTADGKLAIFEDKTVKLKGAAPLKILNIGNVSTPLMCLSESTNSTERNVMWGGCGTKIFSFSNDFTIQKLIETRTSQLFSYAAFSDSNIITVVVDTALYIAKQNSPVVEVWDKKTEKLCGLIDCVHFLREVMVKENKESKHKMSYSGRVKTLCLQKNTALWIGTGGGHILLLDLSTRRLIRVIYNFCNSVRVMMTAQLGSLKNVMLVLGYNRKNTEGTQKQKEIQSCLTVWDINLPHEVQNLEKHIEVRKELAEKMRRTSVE
Chain of LRRK2 (Q5S007 970-2527 limits assumed): as the sequence (Q5S007 970-2527 G2019S limits assumed) above, with S1050G counted along it
T1 sequence (P49759 129-484 limits assumed): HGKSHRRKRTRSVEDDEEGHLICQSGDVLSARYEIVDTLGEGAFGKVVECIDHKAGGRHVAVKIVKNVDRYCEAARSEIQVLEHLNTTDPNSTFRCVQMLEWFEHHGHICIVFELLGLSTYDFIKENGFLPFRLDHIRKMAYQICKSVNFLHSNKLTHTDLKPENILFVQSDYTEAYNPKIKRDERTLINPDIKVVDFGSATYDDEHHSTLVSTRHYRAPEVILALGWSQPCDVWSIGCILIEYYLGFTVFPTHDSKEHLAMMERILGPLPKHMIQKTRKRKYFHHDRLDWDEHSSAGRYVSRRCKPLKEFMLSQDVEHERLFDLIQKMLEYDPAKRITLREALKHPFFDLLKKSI

| SMILES | IC50 (LRRK2 (G2019S)) [µM] | IC50 (human GST-CLK1) [µM] | IC50 (LRRK2) [µM] | IC50 (human GST-DYRK1A) [µM] | inhibition at 0.5 µM (IL-6) [%] | inhibition at 0.5 µM (TNF-α) [%] | inhibition at 1 µM (human DYRK1A and tau) [%] | inhibition at 0.25 µM (human DYRK1A and tau; compound 0.25 uM) [%] | inhibition at 0.5 µM (human DYRK1A and tau; compound 0.5 uM) [%] | THP1/IL6 (% inhib) (IL-6) | % inhibition at 0.25 uM (human DYRK1A and tau; tau phosphorylation, compound 0.25 uM) [%] | % inhibition at 0.5 uM (human DYRK1A and tau; tau phosphorylation, compound 0.5 uM) [%] | % inhibition at 1 uM (human DYRK1A and tau; tau phosphorylation, compound 1 uM) [%] | GI50 (MDA-MB-468 cell line) [nM] | THP-1/TNF-α (% inhib) (TNF-α) |
| --- | --- | --- | --- | --- | --- | --- | --- | --- | --- | --- | --- | --- | --- | --- | --- |
| CNc1nc(Nc2ccc(C(=O)N3CC[C@@H](N4CCOCC4)C3)c3c2OCC3)nc2[nH]cc(C(F)(F)F)c12 [Example 237, (R)-(7-((4-(methylamino)-5-(trifluoromethyl)-7H-pyrrolo[2,3-d]pyrimidin-2-yl)amino)-2,3-dihydrobenzofuran-4-yl)(3-morpholinopyrrolidin-1-yl)methanone] | < 0.1 | < 0.1 | < 0.1 | < 0.1 | 41.1 | 18.9 |  |  |  |  |  |  |  |  |  |
| CCCNc1nc(Nc2ccc(C(=O)N3CCC(N4CCOCC4)CC3)c3c2OCC3)nc2[nH]cc(C#N)c12 [Example 349, 2-((4-(4-morpholino-piperidine-1-carbonyl)-2,3-dihydro-benzofuran-7-yl)amino)-4-(propylamino)-7H-pyrrolo[2,3-d]pyrimidine-5-carbonitrile] |  | < 0.1 |  | < 0.1 | 32.9 | 36.7 | 53.4 | 21 | 37 |  |  |  |  |  |  |
| COCCNc1nc(Nc2ccc(C(=O)N3CCC(N4CCOCC4)CC3)c3c2OCCO3)nc2[nH]cc(C(F)(F)F)c12 [Example 366, (8-((4-((2-methoxyethyl)amino)-5-(trifluoromethyl)-7H-pyrrolo[2,3-d]pyrimidin-2-yl)amino)-2,3-dihydrobenzo[b] [1,4]dioxin-5-yl) (4-morpholino-piperidin-1-yl)methanone] | < 0.1 | < 0.1 | < 0.1 | < 0.1 | 1.1 | 19.2 |  |  |  |  |  |  |  |  |  |
| CCCNc1nc(Nc2ccc(C(=O)N3CCN(C4COC4)CC3)c3c2OCCO3)nc2[nH]cc(C(F)(F)F)c12 [Example 402, (4-(oxetan-3-yl)piperazin-1-yl)(8-((4-(propylamino)-5-(trifluromethyl)-7H-pyrrolo[2,3-d]pyrimidin-2-yl)amino)-2,3-dihydrobenzo[b] [1,4]dioxin-5-yl)methanone] | < 0.1 | < 0.1 |  | < 0.1 |  |  |  |  |  | 18.2 | 7.9 | 26.5 | 61.7 | 301 to 1000 | 1.4 |
| CNc1nc(Nc2ccc(C(=O)N3C[C@@H]4C[C@H]3CO4)c3c2OCCO3)nc2[nH]cc(C(F)(F)F)c12 [Example 408, ((1S,4S)-2-oxa-5-azabicyclo[2.2.1]heptan-5-yl)(8-((4-(methylamino)-5-(trifluoromethyl)-7H-pyrrolo[2,3-d]pyrimidin-2-yl)amino)-2,3-dihydrobenzo[b] [1,4]dioxin-5-yl)methanone] |  | < 0.1 | < 0.1 | < 0.1 | 19.5 | 4.3 | 48.5 | 20.6 | 40.3 |  |  |  |  |  |  |
| O=C(c1ccc(Nc2nc(N[C@@H]3CCOC3)c3c(C(F)(F)F)c[nH]c3n2)c2c1OCCO2)N1CCN(C2COC2)CC1 [Example 416, (R)-(4-(oxetan-3-yl)piperazin-1-yl)(8-((4-((tetrahydrofuran-3-yl)amino)-5-(trifluoromethyl)-7H-pyrrolo[2,3-d]pyrimidin-2-yl)amino)-2,3-dihydrobenzo[b] [1,4]dioxin-5-yl)methanone] | < 0.1 | < 0.1 |  | < 0.1 | 45.6 | 8.1 | 86.8 | 54.2 | 75.9 |  |  |  |  |  |  |
| O=C(c1ccc(Nc2nc(N[C@H]3CCOC3)c3c(C(F)(F)F)c[nH]c3n2)c2c1OCCO2)N1CCN(C2COC2)CC1 [Example 418, (S)-(4-(oxetan-3-yl)piperazin-1-yl)(8-((4-((tetra-hydrofuran-3-yl)amino)-5-(trifluoromethyl)-7H-pyrrolo[2,3-d]pyrimidin-2-yl)amino)-2,3-dihydrobenzo[b] [1,4]dioxin-5-yl)methanone] | < 0.1 | < 0.1 |  | < 0.1 | 35.5 | 8.5 | 80.2 | 46.2 | 55.4 |  |  |  |  |  |  |
| COCCNc1nc(Nc2ccc(C(=O)N3CCOCC3)c3c2OCC3)nc2[nH]cc(C(F)(F)F)c12 [Example 442, (7-((4-((2-methoxyethyl)amino)-5-(trifluoromethyl)-7H-pyrrolo[2,3-d]pyrimidin-2-yl)amino)-2,3-dihydrobenzo-furan-4-yl) (morpholino) methanone] |  | < 0.1 |  | < 0.1 | 31.4 | 1.9 | 80.8 | 45 | 51.5 |  |  |  |  |  |  |

The next lines start with results.

| IC50 (LRRK2 (G2019S)) [µM] | IC50 (human GST-CLK1) [µM] | IC50 (LRRK2) [µM] | IC50 (human GST-DYRK1A) [µM] | SMILES | inhibition at 0.5 µM (IL-6) [%] | inhibition at 0.5 µM (TNF-α) [%] | inhibition at 1 µM (human DYRK1A and tau) [%] | inhibition at 0.25 µM (human DYRK1A and tau; compound 0.25 uM) [%] | inhibition at 0.5 µM (human DYRK1A and tau; compound 0.5 uM) [%] | THP1/IL6 (% inhib) (IL-6) | % inhibition at 0.25 uM (human DYRK1A and tau; tau phosphorylation, compound 0.25 uM) [%] | % inhibition at 0.5 uM (human DYRK1A and tau; tau phosphorylation, compound 0.5 uM) [%] | % inhibition at 1 uM (human DYRK1A and tau; tau phosphorylation, compound 1 uM) [%] | GI50 (MDA-MB-468 cell line) [nM] | THP-1/TNF-α (% inhib) (TNF-α) |
| --- | --- | --- | --- | --- | --- | --- | --- | --- | --- | --- | --- | --- | --- | --- | --- |
| < 0.1 | < 0.1 | < 0.1 | 0.101 to 0.3 | CC(C)CNc1nc(Nc2ccc(C(=O)N3CCC(N4CCOCC4)CC3)c3c2OCC3)nc2[nH]cc(C(F)(F)F)c12 [Example 448, (7-((4-(iso-butylamino)-5-(trifluoromethyl)-7H-pyrrolo[2,3-d]pyrimidin-2-yl)amino)-2,3-dihydrobenzo-furan-4-yl)(4-morpho-linopiperidin-1-yl)methanone] | 26.2 | 17.7 |  |  |  |  |  |  |  |  |  |
|  | < 0.1 |  | < 0.1 | CC(C)Nc1nc(Nc2ccc(C(=O)N3CCC(N4CCOCC4)CC3)c3c2OCC3)nc2[nH]cc(C(F)(F)F)c12 [Example 450, (7-((4-(isopropylamino)-5-(trifluoromethyl)-7H-pyrrolo[2,3-d]pyrimidin-2-yl)amino)-2,3-dihydrobenzo-furan-4-yl)(4-morpho-linopiperidin-1-yl)methanone] | 11.4 | 7.5 | 84.9 | 37.2 | 66.8 |  |  |  |  |  |  |
| < 0.1 | < 0.1 | < 0.1 | < 0.1 | CCNc1nc(Nc2ccc(C(=O)N3CC[C@@H](N4CCOCC4)C3)c3c2OCC3)nc2[nH]cc(C(F)(F)F)c12 [Example 476, (R)-(7-((4-(ethylamino)-5-(trifluoromethyl)-7H-pyrrolo[2,3-d]pyrimidin-2-yl)amino)-2,3-dihydrobenzo-furan-4-yl)(3-morpholino-pyrrolidin-1-yl)methanone] | 47.4 | 24.5 |  |  |  |  |  |  |  |  |  |
